Source: patent publication US6150376A, “Bi- and tri-cyclic aza compounds and their uses” (Georgetown University, priority 1998, dated 2000)

Assays:
dopamine transporter [1] = biological target: T1, dopamine transporter (Rattus norvegicus, UniProt P23977); experiment: [3H]Mazindol binding at the dopamine transporter; conditions: for Ki: Ki ± SE, Krebs-Ringer-HEPES buffer
T1 construct: from tissue
Experimental: (§1) Various isomeric forms of front-bridged Compounds 4, 5, 29, 30, 31, 40 and 50a and back-bridged Compounds 41, 42a, 42b, 49a and 50a were assayed for binding at the dopamine transporter and for inhibition of monamine re-uptake at the dopamine, serotonin and norepinephrine transporters. Mazindol binding were measured as previously described in Johnson et. al., 1992, Eur. J. Pharmacol., Mol. Pharmacol. Sect., 227:411-415. Reuptake inhibition was measured essentially as described in Yi et. al., 1991, Neuropharmacol. 29:475-486, except that an identical Krebs-Ringer-HEPES buffer was used for binding and all uptake assays (Slusher et al., 1997, Drug Alcohol Depend. 48:43-50).

[2] = biological target: T2, norepinephrine transporter (Rattus norvegicus, UniProt Q63380); experiment: [3H]NE uptake (re-uptake inhibition at the norepinephrine transporter); format: biochemical; conditions: Ki ± SE; Krebs-Ringer-HEPES buffer
T2 construct: from tissue
Experimental: as §1

serotonin transporter = biological target: T3, serotonin transporter (Rattus norvegicus, UniProt P31652); experiment: [3H]5-HT uptake (re-uptake inhibition at the serotonin transporter); format: biochemical; conditions: for Ki: Ki ± SE, Krebs-Ringer-HEPES buffer; for 5-HT/DA (ratio of uptake Ki): ratio of 5-HT uptake Ki to DA uptake Ki
T3 construct: from tissue
Experimental: as §1

dopamine transporter [3] = biological target: T1, dopamine transporter; experiment: [3H]DA uptake (re-uptake inhibition at the dopamine transporter); format: biochemical; conditions: for Ki: Ki ± SE, Krebs-Ringer-HEPES buffer; for higher activity / selectivity at the DAT over the 5-HTT: reuptake inhibition, DAT over 5-HTT
Experimental: as §1

[4] = Preskorn, 1994; cited from earlier work
[5] = test system: serotonin and norepinephrine re-uptake; conditions: in words; cited from earlier work

T3 sequence (P31652 whole entry): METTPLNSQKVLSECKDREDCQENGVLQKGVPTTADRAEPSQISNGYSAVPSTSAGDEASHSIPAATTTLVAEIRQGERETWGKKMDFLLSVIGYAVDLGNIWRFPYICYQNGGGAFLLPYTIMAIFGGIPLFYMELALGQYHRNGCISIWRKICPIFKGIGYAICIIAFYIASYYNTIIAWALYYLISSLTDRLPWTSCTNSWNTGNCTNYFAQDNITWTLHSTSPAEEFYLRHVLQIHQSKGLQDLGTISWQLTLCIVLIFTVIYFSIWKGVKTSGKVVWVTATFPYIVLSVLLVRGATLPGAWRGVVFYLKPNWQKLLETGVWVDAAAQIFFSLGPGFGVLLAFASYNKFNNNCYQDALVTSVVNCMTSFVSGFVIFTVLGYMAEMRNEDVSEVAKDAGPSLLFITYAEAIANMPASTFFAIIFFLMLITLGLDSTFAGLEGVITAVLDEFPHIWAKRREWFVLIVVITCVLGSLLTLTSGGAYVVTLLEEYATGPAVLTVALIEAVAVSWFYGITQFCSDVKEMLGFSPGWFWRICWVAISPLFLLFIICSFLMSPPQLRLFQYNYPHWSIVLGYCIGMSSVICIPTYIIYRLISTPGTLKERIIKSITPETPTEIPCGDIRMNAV
T1 sequence (P23977 whole entry): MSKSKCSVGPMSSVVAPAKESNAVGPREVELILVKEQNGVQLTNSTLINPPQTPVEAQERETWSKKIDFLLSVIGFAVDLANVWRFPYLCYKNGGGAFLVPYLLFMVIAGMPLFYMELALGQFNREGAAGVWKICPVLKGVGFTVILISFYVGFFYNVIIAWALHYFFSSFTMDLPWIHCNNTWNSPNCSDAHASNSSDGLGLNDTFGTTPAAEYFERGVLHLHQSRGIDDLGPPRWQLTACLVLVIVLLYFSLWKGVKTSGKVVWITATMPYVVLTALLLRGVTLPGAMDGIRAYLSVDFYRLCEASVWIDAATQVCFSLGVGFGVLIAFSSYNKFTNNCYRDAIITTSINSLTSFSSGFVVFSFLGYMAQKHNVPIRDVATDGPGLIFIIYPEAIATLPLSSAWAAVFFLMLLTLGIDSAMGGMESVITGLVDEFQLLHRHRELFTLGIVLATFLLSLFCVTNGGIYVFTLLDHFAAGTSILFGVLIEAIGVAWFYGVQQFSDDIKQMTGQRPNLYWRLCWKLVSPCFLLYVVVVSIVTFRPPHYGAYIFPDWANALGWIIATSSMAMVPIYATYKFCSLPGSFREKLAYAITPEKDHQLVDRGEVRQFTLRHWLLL
T2 sequence (Q63380 1-617): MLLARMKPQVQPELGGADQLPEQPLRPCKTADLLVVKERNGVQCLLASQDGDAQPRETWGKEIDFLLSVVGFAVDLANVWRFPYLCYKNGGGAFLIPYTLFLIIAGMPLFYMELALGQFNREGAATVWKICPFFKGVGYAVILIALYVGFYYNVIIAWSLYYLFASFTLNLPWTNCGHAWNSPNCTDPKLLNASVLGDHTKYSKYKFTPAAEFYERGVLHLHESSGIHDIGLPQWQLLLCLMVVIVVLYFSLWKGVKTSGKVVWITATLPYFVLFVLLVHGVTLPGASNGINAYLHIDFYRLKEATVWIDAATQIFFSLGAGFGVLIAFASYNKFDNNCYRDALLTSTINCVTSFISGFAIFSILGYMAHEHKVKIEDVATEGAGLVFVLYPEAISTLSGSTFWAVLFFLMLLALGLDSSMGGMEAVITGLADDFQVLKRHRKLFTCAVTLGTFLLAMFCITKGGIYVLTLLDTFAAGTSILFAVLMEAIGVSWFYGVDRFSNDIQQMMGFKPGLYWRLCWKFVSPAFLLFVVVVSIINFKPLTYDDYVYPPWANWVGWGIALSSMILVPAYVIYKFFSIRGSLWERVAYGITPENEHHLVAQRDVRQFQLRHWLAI

CCCC[C@@H]1CC[C@@H]2C3CN[C@H]2C[C@@]31c1ccc(C)cc1 (racemic) [Compound 42a, (1SR, 3SR, 4RS, 5SR, 7RS)-4-butyl-3-(4-methylphenyl)-10-azatricyclo[5.3.0.0^3,8]decane]
Ki (dopamine transporter [1]): 4 ± 0.07 nM | Ki [2]: 2.99 ± 0.17 nM | Ki (serotonin transporter): 14 ± 0.58 nM | 5-HT/DA (ratio of uptake Ki) (serotonin transporter): 6.3 | Ki (dopamine transporter [3]): 2.23 ± 0.12 nM

Cc1ccc(C2CC3CCC4C2c2ccccc2CN34)cc1 (racemic) [Compound 45]
Ki (dopamine transporter [1]): 6.86 ± 0.43 nM | Ki [2]: 1.06 ± 0.03 nM | Ki (serotonin transporter): 1.77 nM | 5-HT/DA (ratio of uptake Ki) (serotonin transporter): 0.074 | Ki (dopamine transporter [3]): 23.9 ± 1.33 nM

C=C1CN2C3CCC2C1C(c1ccc(C)cc1)C3 (racemic) [Compound (±)-40]
Ki (dopamine transporter [1]): 61.7 ± 8.5 nM | binding potency relative to (-)-40 (dopamine transporter [1]; in words): only slightly decreased from that of the (-)-40 | Ki [2]: 2.69 ± 0.12 nM | Ki (serotonin transporter): 2.32 ± 0.23 nM | 5-HT/DA (ratio of uptake Ki) (serotonin transporter): 0.038 | Ki (dopamine transporter [3]): 60.3 nM

O=C1CN2CCC(c3ccc(Cl)cc3)C1C2 (stereo not drawn) [Compound (+)-4]
Ki (dopamine transporter [1]): 18500 ± 2700 nM | Ki [2]: 38300 ± 4610 nM | Ki (serotonin transporter): 4630 ± 760 nM | 5-HT/DA (ratio of uptake Ki) (serotonin transporter): 0.16 | Ki (dopamine transporter [3]): 27600 ± 1000 nM

O=C1CN2CCC(c3ccc(Cl)cc3)C1C2 (stereo not drawn) [Compound (+)-5]
Ki (dopamine transporter [1]): 6770 ± 500 nM | Ki [2]: 4530 ± 410 nM | Ki (serotonin transporter): 25100 ± 3600 nM | 5-HT/DA (ratio of uptake Ki) (serotonin transporter): 2.4 | Ki (dopamine transporter [3]): 10500 ± 450 nM | higher activity / selectivity at the DAT over the 5-HTT (dopamine transporter [3]): 2.4 fold

O=C1CN2CCC(c3ccc(Cl)cc3)C1C2 (stereo not drawn) [Compound (-)-4]
Ki (dopamine transporter [1]): 10500 ± 930 nM | Ki [2]: 70900 ± 18000 nM | Ki (serotonin transporter): 1890 ± 440 nM | 5-HT/DA (ratio of uptake Ki) (serotonin transporter): 0.11 | more active at the 5-HTT (5-HTT/NET selectivity) (serotonin transporter; reuptake inhibition, 5-HTT over NET): 38 fold | Ki (dopamine transporter [3]): 16500 ± 970 nM

O=C1CN2CCC(c3ccc(Cl)cc3)C1C2 (stereo not drawn) [Compound (-)-5]
Ki (dopamine transporter [1]): 9740 ± 160 nM | Ki [2]: 4650 ± 440 nM | Ki (serotonin transporter): 11900 ± 610 nM | 5-HT/DA (ratio of uptake Ki) (serotonin transporter): 1.3 | Ki (dopamine transporter [3]): 9050 ± 460 nM | higher activity / selectivity at the DAT over the 5-HTT (dopamine transporter [3]): 1.3 fold

COc1ccc(C(CN(C)C)C2(O)CCCCC2)cc1 (stereo not drawn) [venlafaxine]
time to full antidepressant effect [4]: 4 to 7 days | selectivity for serotonin (dual serotonin and norepinephrine re-uptake inhibitor) [5]: five-fold selectivity for serotonin

(1R, 2S, 4R, 7S)-(-)-10-methylene-2-(p-tolyl)-8-azatricyclo [5.2.0.0^4.8 ] decane [Compound (-)-40]
Ki (dopamine transporter [1]): 54.3 ± 10.2 nM | Ki [2]: 5.24 ± 0.07 nM | Ki (serotonin transporter): 1.76 nM | 5-HT/DA (ratio of uptake Ki) (serotonin transporter): 0.029 | Ki (dopamine transporter [3]): 60.3 ± 0.4 nM

(1SR, 2SR, 3RS, 5RS, 7SR)-2-butyl-methylphenyl)-10-azatricyclo [5.3.0.0^5,10 ]decane [Compound 50a]
Ki (dopamine transporter [1]): 149 ± 5.75 nM | Ki [2]: 51.7 ± 12 nM | Ki (serotonin transporter): 810 ± 79.5 nM | 5-HT/DA (ratio of uptake Ki) (serotonin transporter): 5.4 | Ki (dopamine transporter [3]): 149 ± 2.13 nM
